For 6 compounds, AC50, IC50 and IC90 results are on record in ChEMBL document CHEMBL1201862, “PubChem BioAssay data set” (2004).

Assay [1] in a line: OVCAR8 cell viability loss – plate reader, dry powder samples, PAX8 project, dose response (AID 743197). It counts as functional, cell-based. The note with it: OVCAR-8.
Assay [2] in a line: general cell-killing toxicity readout – plate reader, dry powder samples, cytotoxicity control for PAX8 inhibitor project, dose response (AID 743021). It counts as functional, cell-based.
The target in assay [3] is Paired box protein Pax-8 (Homo sapiens, UniProt Q06710). Kind of assay: PAX8 transcriptional activity inhibition in RMG-I – RMG-I cells, luciferase, cherry-pick, dose response (AID 687027).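 Further: luciferase reporter driven by Pax8 target thyroperoxidase promoter measured by SteadyGlo luminescence.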 It counts as functional, cell-based.
Chain of Paired box protein Pax-8 (Q06710 whole entry): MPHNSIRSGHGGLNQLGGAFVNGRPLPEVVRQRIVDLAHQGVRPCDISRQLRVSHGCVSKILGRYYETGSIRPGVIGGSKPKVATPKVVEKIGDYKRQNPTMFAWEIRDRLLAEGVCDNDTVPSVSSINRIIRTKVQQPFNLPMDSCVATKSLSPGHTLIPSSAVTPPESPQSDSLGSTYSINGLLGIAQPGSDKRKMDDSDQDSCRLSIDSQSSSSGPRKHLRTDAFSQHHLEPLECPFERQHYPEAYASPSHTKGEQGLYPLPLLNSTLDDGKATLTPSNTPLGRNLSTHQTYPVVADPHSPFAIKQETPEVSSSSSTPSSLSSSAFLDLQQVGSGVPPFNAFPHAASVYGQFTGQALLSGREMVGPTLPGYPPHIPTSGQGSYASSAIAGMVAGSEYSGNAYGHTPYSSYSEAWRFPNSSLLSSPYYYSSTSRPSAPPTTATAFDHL
Assay [4] is described as follows: OVCAR-3 cell viability loss – plate reader, dry powder samples, PAX8 inhibitor project, dose response (AID 743044). Format: functional, cell-based.
Assay [5] in a line: A2780 cell killing – plate reader, dry powder samples, cytotoxicity control, dose response (AID 743046). Format: functional, cell-based.
Assay [6] in a line: toxicity toward immortalized ovarian surface epithelium – cell-based, plate reader, dry powder samples, cytotoxicity control for PAX8 inhibitor project, dose response (AID 743045). Format: functional.
Assay [7] can be described thus: OV-90 cell viability loss – plate reader, dry powder, SA8, PAX8 inhibitor project, dose response (AID 743149). It counts as functional, cell-based.
The nature of assay [8]: PAX5 cellular inhibition readout – cell-based, plate reader, dry powder samples, selectivity assay for PAX8 inhibitor project, dose response (AID 743047).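 Further: HEK293 cells carrying a Pax5 driven CD19 promoter luciferase reporter; potency of inhibitors that lower reporter luminescence.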 Format: functional.
Assay [9] can be described thus: COV362 cell viability loss – plate reader, dry powder, SA12, cytotoxicity control for PAX8 inhibitor project, dose response (AID 743144). Format: functional, cell-based.
Assay [10] in a line: COV434 cell viability loss – plate reader, dry powder, SA7, cytotoxicity control for PAX8 inhibitor project, dose response (AID 743145). Format: functional, cell-based.
Assay [11] is described as follows: PAX8-dependent cell viability loss – plate reader, dry powder, dose response (AID 743049). It counts as functional, cell-based.
A short description of assay [12]: inhibitors acting on PAX2 in cells – cell-based, plate reader, dry powder samples, selectivity assay for PAX8 inhibitor project, dose response (AID 743048).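 Further: HEK293 cells carrying a WT1 promoter luciferase reporter driven by expressed Pax2; potency is for inhibition of Pax2 driven reporter signal.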 It counts as functional.
A short description of assay [13]: Late stage counterscreen for inhibitors of Trypanosoma brucei methionyl tRNA synthetase (MetRS): Luminescence-based cell-based high throughput dose response assay to identify compounds that are cytotoxic to Jurkat human T lymphocyte cells. It counts as functional. In general terms: The purpose of a counterscreen is to sort out artefacts and off-target activity.

Assay [14] is described as follows: liver cell line viability loss – HepG2, luminescence plate reader, powder samples, set 2, cytotoxicity control, dose response (AID 651860). It counts as functional, cell-based.
The nature of assay [15]: inhibitors of non-replicating M. tuberculosis, dose response, luciferase, dry powder (AID 651619). Format: functional. The note with it: Mycobacterium tuberculosis.
Assay [16] is described as follows: growth inhibition of replicating M. tuberculosis, dose response, counter-screen, dry powder, IC90 (AID 651617). It counts as functional. The conditions noted are these: Mycobacterium tuberculosis.
The nature of assay [17]: inhibitors of non-replicating M. tuberculosis, dose response, luciferase, dry powder (AID 651620). It counts as functional. The conditions noted are these: Mycobacterium tuberculosis.
The nature of assay [18]: Reduced DLD-1 viability, concentration-response, CellTiter-Glo luminescence (AID 1117352). It counts as functional. A general note: ATP-based viability assays read luminescence as a measure of living cells.
Assay [19] can be described thus: cytotoxicity toward Colo320 cells – cell-based, CellTiter-Glo luminescence, IC50, dose response (AID 1117334). It counts as functional. The note with it: COLO 320.
A short description of assay [20]: HCT116 cell viability decrease, GSK3B pretreatment – CellTiter-Glo, IC50, dose response (AID 1117339). The note with it: HCT-116. Format: functional.
A short description of assay [21]: cytotoxicity toward HCT116 cells – cell-based, CellTiter-Glo luminescence, IC50, dose response (AID 1117332). Format: functional. The conditions noted are these: HCT-116.
A short description of assay [22]: RKO cell viability reduction, dose response, CellTiter-Glo luminescence (AID 1117322). It counts as functional.
Assay [23] is described as follows: SNU-C1 cell viability reduction, dose response, CellTiter-Glo luminescence (AID 1117323). It counts as functional, cell-based.
A short description of assay [24]: CellTiter-Glo luminescence survival assay, SW480 colon tumor line, concentration-response curve, half-maximal inhibitory concentration (AID 1117338). Format: functional.
A short description of assay [25]: cytotoxicity toward HT-29 cells – cell-based, CellTiter-Glo luminescence, IC50, dose response (AID 1117330). Format: functional.

Active and inactive are the calls of the source.

What is called AC50 is the midpoint of the concentration-response curve, whichever way the signal moves. Consider `COc1ccc(NC(=O)N2CCCCN3[C@@H](CO)[C@@H](c4ccc(C#Cc5ccccc5)cc4)[C@@H]3C2)cc1`, for which the AC50 in assay [1] is 40.1 µM (active); in assay [2], 42.1 µM (active); in assay [3] it was 14.9 µM (active); in [4], 23.3 µM (active); in assay [5], 22.2 µM (active); in [6] it was 37.1 µM (active).

`O=C(N1CCCCC1)[C@@]1(CCS(=O)(=O)c2ccccc2)N=C(c2ccc(OCCCO)cc2)O[C@H]1c1ccccc1`: the AC50 is > 100 µM (inactive) in assay [7]; 41.9 µM (active) in assay [8]; > 100 µM (inactive) in assay [9]; > 100 µM (inactive) in [10]; 64.6 µM (active) in [4]; 87.1 µM (active) in assay [11]. The AC50 in assay [5] was 32.1 µM (active); in assay [12], 49.5 µM (active).

The term IC50 denotes the concentration that inhibits the measured activity by half. Regarding `O=C(NCc1nc2ccccc2[nH]1)C1=C[C@H](c2csc3ccccc23)C[C@H](OCCCCO)O1`, the IC50 in assay [13] is 60.3 µM (inactive).

Regarding `Cc1cc(C)c(S(=O)(=O)Nc2nc(C(C(=O)OC(C)C)C(=O)C(F)(F)F)nc3ccccc23)c(C)c1` (configuration not stated), the AC50 in assay [14] is > 52 µM (inactive).

The term IC90 denotes the point of the concentration-response curve where the effect stands at 90%. In the case of `[N-]=[N+]=NCCOCCNC(=O)CCCOc1ccc(CSc2nnc(-c3ccc(Cl)cc3)o2)nc1`, the figures for the IC90 in [15], in [16] and in assay [17] were 8 µM (active), 62 µM (active) and 8 µM (active), respectively.

As for `Cc1nnc(NS(=O)(=O)c2ccc(N)cc2)s1` [SULFAMETHIZOLE], the IC50 in assay [18], in assay [19], in assay [20], in assay [21], in [22] and in [23] was > 20 µM (inactive) in each case. Further, the IC50 in assay [24] and in [25] was > 20 µM (inactive) throughout.
